In brackets after ≈: the same amount, converted by molar mass. Activity calls are given as the source filed them. The rule behind the calls is not given here.
Legend:
[1] = biological target: Epidermal growth factor receptor (Homo sapiens, UniProt P00533, L858R); test: Inhibition of human N-terminal GST-tagged EGFR L858R mutant (669 to 1210 residues) expressed in baculovirus infected Sf9 insect cells using TK as substrate preincubated for 30 mins followed by substrate addition and measured after 15 mins by HTRF assay
Homo sapiens [2] = species: Homo sapiens; test: Inhibition of S6 phosphorylation at T202/204 residues in human H1781 cells after 1 hrs by Western blot analysis; assay type: cell-based; settings: dose nM 10-500, time 1.0 hrs
[3] = Stability of compound in human plasma assessed as parent compound remaining at 5 uM measured for 1 hr by LC-MS analysis; assay type: ADME, cell-free; settings: read-out: Stabilty
Homo sapiens [4] = species: Homo sapiens; test: Inhibition of MAPK phosphorylation at T202/204 residues in human H1781 cells after 1 hrs by Western blot analysis; assay type: cell-based; settings: dose nM 10-500, time 1.0 hrs
[5] = biological target: Epidermal growth factor receptor (Homo sapiens, UniProt P00533, L858R/T790M); test: Inhibition of human N-terminal GST-tagged EGFR L858R/T790M mutant (669 to 1210 residues) expressed in baculovirus infected Sf9 insect cells using TK as substrate preincubated for 30 mins followed by substrate addition and measured after 20 mins by HTRF assay
[6] = biological target: Serine/threonine-protein kinase AKT (Homo sapiens) (UniProt P31751+Q9Y243+P31749); test: Inhibition of AKT phosphorylation at S473 residues in human H1781 cells after 1 hrs by Western blot analysis; assay type: cell-based; settings: dose nM 10-500, time 1.0 hrs
[7] = Kinetic solubility of compound in HEPES buffer a pH 7.4 at 500 uM after 90 mins; assay type: physicochemical; settings: read-out: Kinetic_solubility
[8] = Inhibition of C-terminal His6-tagged HER2-A775_G776insYVMA mutant (703 to 1029 residues) (unknown origin) expressed in Sf9 insect cells using TK as substrate measured up to 2 to 40 mins by fluorescence assay; set-up: species or system Homo sapiens
[9] = Solubility of compound in aqueous buffer at pH 7.4 after 120 mins by turbidometric assay; assay type: physicochemical
[10] = Stability of compound in mouse plasma assessed as parent compound remaining at 5 uM measured for 1 hr by LC-MS analysis; assay type: ADME, cell-free; settings: read-out: Stabilty
[11] = Apparent permeability across apical side to basolateral side in human Caco-2 cells at 5 uM after 2 hrs by transwell assay; assay type: ADME, cell-based; settings: read-out: permeability
[12] = biological target: T1, Receptor tyrosine-protein kinase erbB-2 (Homo sapiens, UniProt P04626); test: Inhibition of C-terminal His6-tagged HER2 (703 to 1029 residues) (unknown origin) expressed in Sf9 insect cells using TK as substrate preincubated for 30 mins followed by substrate addition and measured after 60 mins in presence of XL665-labeled streptavidin by HTRF assay
cells = assay type: cell-based; settings: Homo sapiens, NCI-H1781, 96 h
Description: Inhibition of HER2-G776delinsVC mutant (unknown origin) expressed in human H1781 cells assessed as reduction in HER2 induced cell viability after 96 hrs by CellTiter-Glo assay

[13] = Ratio of apparent permeability across basolateral to apical over apical to basolateral side in human Caco2 cells at 5 uM after 2 hrs by transwell assay; assay type: ADME, cell-based; settings: Caco-2
[14] = Inhibition of C-terminal His6-tagged HER2-A775_G776insYVMA mutant (703 to 1029 residues) (unknown origin) expressed in Sf9 insect cells assessed as Kinact using TK as substrate measured up to 2 to 40 mins by fluorescence assay; settings: Homo sapiens, time min 2-40
[15] = biological target: T1, Receptor tyrosine-protein kinase erbB-2; test: Inhibition of HER2 in human H1781 cells assessed as reduction in HER2 phosphorylation at Y1221/1222 residues after 1 hrs by Western blot analysis; assay type: cell-based; settings: dose nM 10-500, time 1.0 hrs
[16] = Intrinsic clearance in mouse liver microsomes at 1 uM measured up to 60 mins by LC-MS analysis; assay type: ADME, Microsome; settings: read-out: CLH
[17] = Apparent permeability across basolateral side to apical side in human Caco-2 cells at 5 uM after 2 hrs by transwell assay; assay type: ADME, cell-based; settings: read-out: permeability
[18] = Intrinsic clearance in human liver microsomes at 1 uM measured up to 50 mins by LC-MS analysis; assay type: ADME, Microsome; settings: read-out: CLH
[19] = Inhibition of HER2-A775_G776insYVMA mutant (unknown origin) expressed in mouse BaF3 cells assessed as reduction in HER2 induced cell viability after 96 hrs by CellTiter-Glo assay; assay type: cell-based; settings: BaF3, 96 h
[20] = biological target: Epidermal growth factor receptor (Homo sapiens, UniProt P00533); test: Inhibition of human N-terminal GST-tagged EGFR (669 to 1210 residues) expressed in baculovirus infected Sf9 insect cells using TK as substrate preincubated for 30 mins followed by substrate addition and measured after 25 mins by HTRF assay
[21] = biological target: T1, Receptor tyrosine-protein kinase erbB-2; test: Inhibition of HER2 in human H1781 cells assessed as reduction in HER2 phosphorylation at Y1248 residues after 1 hrs by Western blot analysis; assay type: cell-based; settings: dose nM 10-500, time 1.0 hrs
[22] = Intrinsic clearance in human liver microsomes at 3 uM measured up to 50 mins by LC-MS analysis; assay type: ADME, Microsome; settings: read-out: CLH
[23] = Intrinsic clearance in mouse liver microsomes at 3 uM measured up to 60 mins by LC-MS analysis; assay type: ADME, Microsome; settings: read-out: CLH
[24] = biological target: T1, Receptor tyrosine-protein kinase erbB-2; test: Inhibition of HER2 in human H1781 cells assessed as reduction in HER2 phosphorylation at Y1248 residues at 100 to 500 nM after 1 hrs by Western blot analysis; assay type: cell-based; settings: dose nM 100-500, time 1.0 hrs
[25] = biological target: T1, Receptor tyrosine-protein kinase erbB-2; test: Inhibition of HER2 in human H1781 cells assessed as reduction in HER2 phosphorylation at Y1221/1222 residues at 100 to 500 nM after 1 hrs by Western blot analysis; assay type: cell-based; settings: dose nM 100-500, time 1.0 hrs

Sequence of Epidermal growth factor receptor (Homo sapiens, UniProt P00533) (P00533 whole entry, the tested form may be a part): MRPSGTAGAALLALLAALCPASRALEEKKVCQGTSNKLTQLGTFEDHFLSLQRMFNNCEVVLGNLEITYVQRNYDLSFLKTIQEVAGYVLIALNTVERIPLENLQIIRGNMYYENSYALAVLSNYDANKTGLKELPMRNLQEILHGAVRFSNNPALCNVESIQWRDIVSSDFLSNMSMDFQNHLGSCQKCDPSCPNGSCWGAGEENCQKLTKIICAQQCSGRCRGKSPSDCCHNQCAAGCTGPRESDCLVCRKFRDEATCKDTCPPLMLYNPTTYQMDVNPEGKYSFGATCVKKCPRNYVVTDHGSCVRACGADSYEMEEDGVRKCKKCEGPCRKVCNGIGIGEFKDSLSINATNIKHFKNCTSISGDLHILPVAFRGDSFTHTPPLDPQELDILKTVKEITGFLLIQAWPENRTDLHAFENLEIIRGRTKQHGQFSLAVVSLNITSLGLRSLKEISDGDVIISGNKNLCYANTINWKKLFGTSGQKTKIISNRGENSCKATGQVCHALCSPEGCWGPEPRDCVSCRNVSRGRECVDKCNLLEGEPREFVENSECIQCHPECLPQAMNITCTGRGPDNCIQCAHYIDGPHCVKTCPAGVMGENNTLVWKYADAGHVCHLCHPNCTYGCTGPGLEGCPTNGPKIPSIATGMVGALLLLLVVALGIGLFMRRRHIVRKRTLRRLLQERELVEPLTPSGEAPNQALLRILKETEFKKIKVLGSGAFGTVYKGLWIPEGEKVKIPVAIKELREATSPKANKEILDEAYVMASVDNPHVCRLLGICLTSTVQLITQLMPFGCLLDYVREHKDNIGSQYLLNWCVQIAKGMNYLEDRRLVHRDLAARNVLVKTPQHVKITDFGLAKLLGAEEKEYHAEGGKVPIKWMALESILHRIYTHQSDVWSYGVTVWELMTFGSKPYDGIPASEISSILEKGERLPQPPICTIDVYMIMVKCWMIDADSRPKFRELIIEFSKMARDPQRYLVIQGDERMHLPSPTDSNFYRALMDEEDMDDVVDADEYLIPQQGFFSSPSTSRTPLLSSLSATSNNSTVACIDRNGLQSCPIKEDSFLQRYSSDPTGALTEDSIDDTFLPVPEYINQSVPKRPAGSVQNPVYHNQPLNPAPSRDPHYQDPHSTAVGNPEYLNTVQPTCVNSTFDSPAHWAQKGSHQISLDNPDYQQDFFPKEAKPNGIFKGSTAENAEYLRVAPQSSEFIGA
T1 sequence (P04626 whole entry, the tested form may be a part): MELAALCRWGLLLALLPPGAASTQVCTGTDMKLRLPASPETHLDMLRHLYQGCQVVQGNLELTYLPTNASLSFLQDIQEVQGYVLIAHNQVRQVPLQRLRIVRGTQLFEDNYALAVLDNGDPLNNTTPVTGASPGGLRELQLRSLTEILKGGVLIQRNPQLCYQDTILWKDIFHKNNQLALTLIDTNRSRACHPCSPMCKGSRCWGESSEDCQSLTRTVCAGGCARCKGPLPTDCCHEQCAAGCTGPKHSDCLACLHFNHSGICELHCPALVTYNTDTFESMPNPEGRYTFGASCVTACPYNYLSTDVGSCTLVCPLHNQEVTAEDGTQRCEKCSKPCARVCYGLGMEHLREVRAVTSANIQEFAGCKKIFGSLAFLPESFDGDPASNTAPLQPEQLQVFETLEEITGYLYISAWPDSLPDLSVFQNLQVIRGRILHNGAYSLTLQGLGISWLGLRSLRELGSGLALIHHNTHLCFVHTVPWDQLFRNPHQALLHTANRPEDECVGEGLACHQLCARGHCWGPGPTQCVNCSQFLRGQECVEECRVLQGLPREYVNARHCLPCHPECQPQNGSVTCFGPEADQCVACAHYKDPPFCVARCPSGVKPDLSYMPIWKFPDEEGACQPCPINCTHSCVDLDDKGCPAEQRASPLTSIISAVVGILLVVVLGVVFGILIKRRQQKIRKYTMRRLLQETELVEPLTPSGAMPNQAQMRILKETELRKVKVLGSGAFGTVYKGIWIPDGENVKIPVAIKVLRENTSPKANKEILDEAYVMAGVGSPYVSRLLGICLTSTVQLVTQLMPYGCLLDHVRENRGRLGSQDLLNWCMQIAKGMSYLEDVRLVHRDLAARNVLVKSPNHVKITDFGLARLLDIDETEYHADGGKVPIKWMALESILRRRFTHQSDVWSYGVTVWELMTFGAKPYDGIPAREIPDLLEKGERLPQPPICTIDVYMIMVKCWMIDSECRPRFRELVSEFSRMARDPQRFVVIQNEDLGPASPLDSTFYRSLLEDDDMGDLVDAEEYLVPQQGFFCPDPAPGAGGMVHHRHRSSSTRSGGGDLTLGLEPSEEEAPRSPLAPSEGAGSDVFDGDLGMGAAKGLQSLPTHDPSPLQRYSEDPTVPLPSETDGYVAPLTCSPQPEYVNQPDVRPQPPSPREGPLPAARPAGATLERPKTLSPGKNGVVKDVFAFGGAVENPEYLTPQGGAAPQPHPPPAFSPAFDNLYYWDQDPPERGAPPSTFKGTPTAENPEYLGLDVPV
Sequence of Epidermal growth factor receptor (Homo sapiens, UniProt P00533, L858R) (P00533 25-1210 L858R limits assumed): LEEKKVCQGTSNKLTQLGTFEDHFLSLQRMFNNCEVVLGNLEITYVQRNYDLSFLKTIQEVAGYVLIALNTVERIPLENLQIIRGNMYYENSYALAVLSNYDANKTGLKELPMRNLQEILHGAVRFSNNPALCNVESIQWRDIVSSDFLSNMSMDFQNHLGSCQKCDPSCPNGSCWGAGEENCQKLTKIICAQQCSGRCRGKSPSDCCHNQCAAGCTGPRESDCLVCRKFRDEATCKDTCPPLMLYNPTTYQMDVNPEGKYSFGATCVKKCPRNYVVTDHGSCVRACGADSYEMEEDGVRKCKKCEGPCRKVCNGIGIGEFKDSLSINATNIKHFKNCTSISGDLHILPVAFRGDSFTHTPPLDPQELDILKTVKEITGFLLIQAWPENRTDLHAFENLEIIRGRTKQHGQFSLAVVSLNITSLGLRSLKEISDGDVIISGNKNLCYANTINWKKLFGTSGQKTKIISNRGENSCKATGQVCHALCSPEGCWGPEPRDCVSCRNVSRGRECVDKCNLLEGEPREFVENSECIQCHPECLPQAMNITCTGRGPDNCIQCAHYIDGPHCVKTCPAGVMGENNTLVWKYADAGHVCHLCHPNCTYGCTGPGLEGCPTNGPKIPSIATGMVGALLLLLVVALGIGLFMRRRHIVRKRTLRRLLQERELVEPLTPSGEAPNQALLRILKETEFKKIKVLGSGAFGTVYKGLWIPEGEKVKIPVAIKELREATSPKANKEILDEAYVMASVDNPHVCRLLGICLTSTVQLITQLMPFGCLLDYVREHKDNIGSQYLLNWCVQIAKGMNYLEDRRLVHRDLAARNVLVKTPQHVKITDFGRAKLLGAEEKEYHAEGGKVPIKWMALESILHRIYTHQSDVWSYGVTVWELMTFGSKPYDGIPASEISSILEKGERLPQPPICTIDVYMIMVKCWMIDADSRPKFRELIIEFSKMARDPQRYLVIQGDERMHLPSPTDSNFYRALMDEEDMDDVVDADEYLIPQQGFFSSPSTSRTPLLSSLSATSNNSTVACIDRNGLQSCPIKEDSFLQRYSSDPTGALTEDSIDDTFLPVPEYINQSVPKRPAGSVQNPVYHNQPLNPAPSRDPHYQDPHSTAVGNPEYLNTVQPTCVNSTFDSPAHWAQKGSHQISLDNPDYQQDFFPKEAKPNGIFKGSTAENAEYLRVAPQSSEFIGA
Sequence of Serine/threonine-protein kinase AKT (Homo sapiens) (P31749 whole entry, looked up): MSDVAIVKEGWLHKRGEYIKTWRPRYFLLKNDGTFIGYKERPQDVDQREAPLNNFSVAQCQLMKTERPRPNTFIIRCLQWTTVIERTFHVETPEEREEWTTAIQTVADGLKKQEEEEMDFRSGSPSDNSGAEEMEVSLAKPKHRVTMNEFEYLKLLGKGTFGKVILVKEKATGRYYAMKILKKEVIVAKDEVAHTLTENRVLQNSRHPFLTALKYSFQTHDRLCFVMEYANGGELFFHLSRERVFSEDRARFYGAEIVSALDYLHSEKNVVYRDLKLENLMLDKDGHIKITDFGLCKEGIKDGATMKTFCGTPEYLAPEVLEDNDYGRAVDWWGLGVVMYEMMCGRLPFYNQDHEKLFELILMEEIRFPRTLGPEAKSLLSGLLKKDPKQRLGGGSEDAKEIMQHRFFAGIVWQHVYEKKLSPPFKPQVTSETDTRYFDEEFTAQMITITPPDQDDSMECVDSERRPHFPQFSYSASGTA
Sequence of Serine/threonine-protein kinase AKT (Homo sapiens) (P31751 whole entry, looked up): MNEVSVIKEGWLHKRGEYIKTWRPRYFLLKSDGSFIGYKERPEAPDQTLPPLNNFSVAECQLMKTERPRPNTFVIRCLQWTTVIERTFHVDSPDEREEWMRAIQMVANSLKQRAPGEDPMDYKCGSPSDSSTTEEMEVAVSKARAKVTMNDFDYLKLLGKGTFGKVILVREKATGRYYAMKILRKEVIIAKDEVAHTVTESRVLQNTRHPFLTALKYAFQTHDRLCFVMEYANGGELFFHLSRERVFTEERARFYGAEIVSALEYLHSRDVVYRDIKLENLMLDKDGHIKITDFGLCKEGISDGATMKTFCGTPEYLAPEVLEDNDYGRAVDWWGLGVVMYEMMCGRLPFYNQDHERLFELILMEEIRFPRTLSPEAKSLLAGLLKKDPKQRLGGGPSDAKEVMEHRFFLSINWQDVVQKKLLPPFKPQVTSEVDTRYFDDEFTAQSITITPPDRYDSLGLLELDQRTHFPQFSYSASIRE
Sequence of Serine/threonine-protein kinase AKT (Homo sapiens) (Q9Y243 whole entry, looked up): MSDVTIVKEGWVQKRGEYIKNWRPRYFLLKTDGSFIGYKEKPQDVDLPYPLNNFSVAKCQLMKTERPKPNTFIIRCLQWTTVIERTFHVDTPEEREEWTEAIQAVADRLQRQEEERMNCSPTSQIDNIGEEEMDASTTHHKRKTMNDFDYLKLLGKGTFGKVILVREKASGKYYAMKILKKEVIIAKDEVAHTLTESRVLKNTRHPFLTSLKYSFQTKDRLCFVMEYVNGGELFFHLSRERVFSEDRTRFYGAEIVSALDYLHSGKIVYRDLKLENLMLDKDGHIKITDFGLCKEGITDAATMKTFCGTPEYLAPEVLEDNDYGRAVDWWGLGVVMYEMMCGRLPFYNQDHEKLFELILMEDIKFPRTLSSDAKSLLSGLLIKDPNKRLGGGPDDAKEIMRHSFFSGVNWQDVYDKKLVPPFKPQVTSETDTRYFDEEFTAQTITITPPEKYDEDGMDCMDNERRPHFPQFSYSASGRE

Compound: C=CC(=O)Nc1cccc(-c2c[nH]c3ncnc(Nc4ccc(CN5C(=O)c6ccccc6C5=O)cc4)c23)c1
- IC50 [1]: 0.2 nM
- inhibition (Homo sapiens [2]): Dose-dependent effect
- remaining at 1 h, 5 µM [3]: 78.1%
- inhibition (Homo sapiens [4]): Dose-dependent effect
- IC50 [5]: 33 nM
- inhibition [6]: Dose-dependent effect
- solubility kinetic at 1.5 h, 500 µM [7]: 8.3 µM (≈ 4.27 µg/mL)
- Ki [8]: 143 nM
- solubility kinetic at 2 h [9]: 30 µM (≈ 15.4 µg/mL)
- remaining at 1 h, 5 µM [10]: 81.3%
- Papp A→B at 2 h, 5 µM [11]: 0.5 ×10⁻⁶ cm/s
- IC50 [12]: 11 nM
- IC50 (cells): 419 nM
- efflux ratio at 2 h, 5 µM [13]: 0.2
- Kinact [14]: 0.132 min⁻¹
- inhibition [15]: Dose-dependent effect
- microsomal CLint at 1 µM [16]: 770 µL/min/mg
- Papp B→A at 2 h, 5 µM [17]: 0.1 ×10⁻⁶ cm/s
- microsomal CLint at 1 µM [18]: 96.3 µL/min/mg
- IC50 [19]: 381 nM
- IC50 [20]: 0.4 nM
- inhibition [21]: Dose-dependent effect

Compound: C=CC(=O)Nc1cccc(-c2c[nH]c3ncnc(Nc4ccc(OCc5ccccn5)c(Cl)c4)c23)c1
- IC50 [1]: 0.1 nM
- inhibition (Homo sapiens [2]): Dose-dependent effect
- remaining at 1 h, 5 µM [3]: 79.8%
- inhibition (Homo sapiens [4]): Dose-dependent effect
- IC50 [5]: 3.9 nM
- inhibition [6]: Dose-dependent effect
- Ki [8]: 54 nM
- solubility kinetic at 2 h [9]: 30 µM (≈ 14.9 µg/mL)
- remaining at 1 h, 5 µM [10]: 49%
- Papp A→B at 2 h, 5 µM [11]: 1.9 ×10⁻⁶ cm/s
- IC50 [12]: 11 nM
- microsomal CLint at 3 µM [22]: 27.7 µL/min/mg
- IC50 (cells): 161 nM
- efflux ratio at 2 h, 5 µM [13]: 0.3
- Kinact [14]: 0.136 min⁻¹
- inhibition [15]: Dose-dependent effect
- Papp B→A at 2 h, 5 µM [17]: 0.6 ×10⁻⁶ cm/s
- microsomal CLint at 3 µM [23]: 125 µL/min/mg
- IC50 [19]: 83 nM
- IC50 [20]: 0.08 nM
- inhibition [21]: Dose-dependent effect

Compound: C=CC(=O)Nc1cc(-c2c[nH]c3ncnc(Nc4ccc(OCc5ccccn5)c(Cl)c4)c23)ccc1OCCN(C)C
- IC50 [1]: 0.1 nM
- remaining at 1 h, 5 µM [3]: 74.4%
- IC50 [5]: 2 nM
- solubility kinetic at 1.5 h, 500 µM [7]: 60.6 µM (≈ 35.4 µg/mL)
- Ki [8]: 49 nM
- solubility kinetic at 2 h [9]: 100 µM (≈ 58.4 µg/mL)
- remaining at 1 h, 5 µM [10]: 0.8%
- Papp A→B at 2 h, 5 µM [11]: 2.1 ×10⁻⁶ cm/s
- IC50 [12]: 15 nM
- inhibition [24]: Active
- IC50 (cells): 164 nM
- efflux ratio at 2 h, 5 µM [13]: 11.4
- Kinact [14]: 0.212 min⁻¹
- microsomal CLint at 1 µM [16]: 866 µL/min/mg
- Papp B→A at 2 h, 5 µM [17]: 23.9 ×10⁻⁶ cm/s
- microsomal CLint at 1 µM [18]: 64.2 µL/min/mg
- inhibition [25]: Active
- IC50 [19]: 120 nM
- IC50 [20]: 0.09 nM

Compound: C=CC(=O)Nc1cc(-c2c[nH]c3ncnc(Nc4ccc5c(cnn5Cc5ccccc5)c4)c23)ccc1OCCO
- IC50 [1]: 0.1 nM
- remaining at 1 h, 5 µM [3]: 90.9%
- IC50 [5]: 6 nM
- solubility kinetic at 1.5 h, 500 µM [7]: 16.8 µM (≈ 9.17 µg/mL)
- Ki [8]: 67 nM
- solubility kinetic at 2 h [9]: 30 µM (≈ 16.4 µg/mL)
- remaining at 1 h, 5 µM [10]: 88.4%
- Papp A→B at 2 h, 5 µM [11]: 1.2 ×10⁻⁶ cm/s
- IC50 [12]: 14 nM
- inhibition [24]: Active
- IC50 (cells): 508 nM
- efflux ratio at 2 h, 5 µM [13]: 4.5
- Kinact [14]: 0.138 min⁻¹
- microsomal CLint at 1 µM [16]: 603 µL/min/mg
- Papp B→A at 2 h, 5 µM [17]: 5.2 ×10⁻⁶ cm/s
- microsomal CLint at 1 µM [18]: 66 µL/min/mg
- inhibition [25]: Active
- IC50 [19]: 159 nM
- IC50 [20]: 0.07 nM

Source: ChEMBL document CHEMBL4665812, “Targeting Her2-insYVMA with Covalent Inhibitors-A Focused Compound Screening and Structure-Based Design Approach” (J Med Chem, 2020)
